Laboratory results from article PMC6069857, “Effects of novel HDAC inhibitors on urothelial carcinoma cells” (Clinical Epigenetics, 2018).

What was measured:
[1] = biological target: HDAC2 (Homo sapiens, UniProt Q92769); assay: In vitro fluorescence-based HDAC inhibition assay (Reaction Biology); conditions: read-out: IC50 HDAC2; experiment performed once
[2] = system: UCCs; assay: Western blot of acetylated α-tubulin and histones H3/H4; type: cell-based, human; conditions: 48 h, 19i 1 or 2 μM
Experimental: (§1) Total protein extraction, purification of histones, and Western blot analysis were performed as previously described. Briefly, cells were incubated for 30 min on ice in RIPA-buffer (150 mM NaCl, 1% Triton X-100, 0.5% desoxycholate, 1% Nonidet P-40, 0.1% SDS, 1 mM EDTA, 50 mM TRIS (pH 7.6)) containing 10 μl/ml protease inhibitor cocktail (#P-8340, Sigma Aldrich, St. Louis, MO). Histones were extracted for detection of histone H3 and H4 acetylation by a modified published protocol employing sulfuric acid extraction and TCA-precipitation. Concentrations of total protein and histones were determined by BCA protein assay (Thermo Fisher Scientific, Carlsbad, CA). Subsequently, total cell proteins (15 μg) or extracted histones (2 μg) were separated by SDS-PAGE (total proteins 10–12% gels, histones 15% gels), transferred to PVDF membranes (Merck Millipore, Berlin, Germany), and were incubated with primary antibodies (at RT for 1 h or 4 °C overnight, see Additional file 3: Table S2) following blocking with 5% non-fat milk or BSA (bovine serum albumin) in TBST (150 mM NaCl, 10 mM TRIS, pH 7.4 and 0.1% Tween-20). For signal detection, membranes were incubated with a suitable horseradish peroxidase-conjugated secondary antibody (see Additional file 2: Table S1) at RT for 1 h and signals were visualized by SuperSignal™ West Femto (Thermo Fisher Scientific, Carlsbad, CA) and WesternBright Quantum kit (Biozym, Hessisch Oldendorf, Germany).

[3] = biological target: HDAC6 (Homo sapiens, UniProt Q9UBN7); set-up: purchased Reaction Biology Corp. (Malvern, PA); conditions: previously reported; cited from earlier work
HDAC6, sequence (Q9UBN7 whole entry): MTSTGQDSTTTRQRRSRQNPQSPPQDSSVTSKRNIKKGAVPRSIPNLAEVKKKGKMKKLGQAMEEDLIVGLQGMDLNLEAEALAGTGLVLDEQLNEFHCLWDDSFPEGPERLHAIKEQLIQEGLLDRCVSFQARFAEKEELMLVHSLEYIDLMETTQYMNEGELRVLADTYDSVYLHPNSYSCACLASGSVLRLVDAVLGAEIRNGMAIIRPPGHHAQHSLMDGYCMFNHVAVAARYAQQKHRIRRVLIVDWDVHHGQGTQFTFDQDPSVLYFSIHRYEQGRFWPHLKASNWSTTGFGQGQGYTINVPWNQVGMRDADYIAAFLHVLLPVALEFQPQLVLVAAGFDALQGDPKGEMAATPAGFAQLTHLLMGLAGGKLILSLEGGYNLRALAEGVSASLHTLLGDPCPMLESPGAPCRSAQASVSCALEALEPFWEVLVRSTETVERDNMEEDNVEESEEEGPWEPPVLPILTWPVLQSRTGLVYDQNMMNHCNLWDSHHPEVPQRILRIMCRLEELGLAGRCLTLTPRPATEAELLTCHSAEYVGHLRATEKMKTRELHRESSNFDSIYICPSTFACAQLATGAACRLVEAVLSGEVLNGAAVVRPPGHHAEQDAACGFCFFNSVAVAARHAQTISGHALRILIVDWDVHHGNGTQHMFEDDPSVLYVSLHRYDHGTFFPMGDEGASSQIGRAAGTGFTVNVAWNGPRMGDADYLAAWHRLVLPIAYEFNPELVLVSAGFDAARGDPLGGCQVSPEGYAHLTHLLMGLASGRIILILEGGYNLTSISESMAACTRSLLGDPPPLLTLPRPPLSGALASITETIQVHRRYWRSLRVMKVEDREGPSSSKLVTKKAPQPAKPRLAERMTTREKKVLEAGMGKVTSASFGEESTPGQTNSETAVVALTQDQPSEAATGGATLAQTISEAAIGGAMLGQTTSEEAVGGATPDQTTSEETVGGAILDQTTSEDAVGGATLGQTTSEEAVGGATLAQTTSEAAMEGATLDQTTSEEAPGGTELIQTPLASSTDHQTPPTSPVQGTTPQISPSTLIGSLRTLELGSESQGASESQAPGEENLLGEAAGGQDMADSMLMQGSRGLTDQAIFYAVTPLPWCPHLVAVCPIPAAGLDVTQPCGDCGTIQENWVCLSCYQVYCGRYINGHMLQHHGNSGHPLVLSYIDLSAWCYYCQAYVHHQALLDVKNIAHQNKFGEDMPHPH

[4] = system: VM-CUB1-HDAC4; assay: MTT viability assay (CC50); type: cell-based, human; conditions: VM-CUB-HDAC4 (HDAC4-overexpressing), 72 h
Experimental: (§2) HDAC4 cDNA from the pcDNA-HDAC4-FLAG plasmid kindly provided by Tso-Pang Yao (Addgene plasmid # 30485) was cloned into the lentiviral vector puc2CL12IPwo using standard techniques, thereby creating the vector puc2CL12IPwo-HDAC4-FLAG (Additional file 1: Figure S1). Integrity of the HDAC4 coding sequence was verified by sequencing. Lentivirus production and cell transduction were performed as previously described. In brief, to produce replication-deficient lentiviruses, HEK-293T cells were transfected with helper plasmid expression construct (pCD/NL-BH [35]), envelope vector (pczVSV-G [36]), and the vector plasmids puc2CL12IPwo or puc2CL12IPwo-HDAC4-FLAG. Viral particles were harvested 48 h after transfection and used to transduce VM-CUB1 and UM-UC-3 cells using 8 μg/ml polybrene (Sigma Aldrich, St. Louis, MO). Twenty-four hours after transduction, the supernatant containing viral particles was removed and the transduced cells were selected with 4 (VM-CUB1) or 1 (UM-UC-3) μg/ml puromycin (Invitrogen, Carlsbad, CA) for 7 days. Stable overexpression of HDAC4 was confirmed by Western blot analysis of cells from several passages.
(§3) For the determination of cellular mean cytotoxic concentration (CC50), UCCs, non-malignant control cells, and HDAC4-overexpressing clones were seeded in a 96-well format and treated once with a range of defined concentrations of the HDAC inhibitors. After 72 h, viability was quantified by NAD(P)H-dependent 3-(4,5-dimethylthiazol-2-yl)-2,5-diphenyltetrazolium bromide dye reduction assay (MTT, Sigma Aldrich, St. Louis, MO). CC50 values were estimated from three independent experiments by non-linear regression analysis (four-parameter logistic equation) using Prism 4.0 (Graph Pad) or Origin 8.0 (Origin Lab, Northhampton, GB). For time-dependent proliferation experiments, viability of untreated or inhibitor-treated cells was measured after 24, 48, and 72 h.

[5] = system: UM-UC-3-LV; assay: MTT viability assay (CC50); type: cell-based, human; conditions: UM-UC-3-LV (empty vector), 72 h
Experimental: as §2, §3

[6] = system: UM-UC-3-HDAC4; assay: MTT viability assay (CC50); type: cell-based, human; conditions: UM-UC-3-HDAC4 (HDAC4-overexpressing), 72 h
Experimental: as §2, §3

[7] = system: three UCCs (VM-CUB1, UM-UC-3, 639-V); assay: qRT-PCR of TS and p21CIP1 mRNA; type: cell-based, human; conditions: 19i 2 μM, 24 or 48 h, all three UCCs
Experimental: Total cell RNA was isolated by the Qiagen RNeasy Mini Kit (Qiagen, Hilden, Germany) according to the manufacturer’s protocol, and cDNA was synthesized using QuantiTect Reverse Transcription Kit (Qiagen, Hilden, Germany) with an extended incubation time of 30 min at 42 °C as previously described. Target mRNA expression was measured by qRT-PCR with QuantiTect SYBR Green RT-PCR Kit (Qiagen, Hilden, Germany) on the LightCycler® 96 Real-Time PCR system with software version 1.1 (Roche Diagnostics, Rotkreuz, Switzerland). All used primers, comprising QuantiTect Primer assays (Qiagen, Hilden, Germany), self-designed target primers, and primers for the reference housekeeping gene TBP (TATA-box binding protein), are listed in Additional file 2: Table S1.

[8] = system: UCCs VM-CUB1, UM-UC-3, and 639-V; assay: Western blot of cleaved PARP; type: cell-based, human; conditions: 19i 2 μM, 48 h; especially in 639-V
Experimental: as §1, with “For signal detection, membranes were incubated with a suitable horseradish peroxidase-conjugated secondary antibody (see Additional file 2: Table S1) at RT for 1 h and signals were visualized by SuperSignal™ West Femto (Thermo Fisher Scientific, Carlsbad, CA) and WesternBright Quantum kit (Biozym, Hessisch Oldendorf, Germany).” left out

[9] = system: three UCCs (VM-CUB1, UM-UC-3, 639-V); assay: High-content analysis-based fluorescent live/dead assay, three UCCs together; type: cell-based, human; conditions: HCA live/dead assay, 72 h
Experimental: Live and dead cells were assayed by high-content analysis (HCA). […] After 72 h of treatment, cells were stained with a mixture of Hoechst 33342 (Sigma Aldrich, St. Louis, MO), calcein AM (Merck Millipore, Germany), and propidium iodide (Santa Cruz Biotechnology, Heidelberg) for cell nuclei, live and dead cells. The staining solution was replaced by PBS after 20 min. Images were acquired using ArrayScan XTI Live High Content Platform (Thermo Fisher Scientific Inc., USA) using excitation filters of 386, 485, and 560 nm for Hoechst 33342, calcein AM, and propidium iodide, respectively. The results were analyzed using HCS Studio Cellomics Scan (Thermo Fisher Scientific Inc., USA).

[10] = biological target: HDAC9 (Homo sapiens, UniProt Q9UKV0); assay: In vitro fluorescence-based HDAC inhibition assay (Reaction Biology); conditions: read-out: IC50 HDAC9; experiment performed once
HDAC9, sequence (Q9UKV0 whole entry): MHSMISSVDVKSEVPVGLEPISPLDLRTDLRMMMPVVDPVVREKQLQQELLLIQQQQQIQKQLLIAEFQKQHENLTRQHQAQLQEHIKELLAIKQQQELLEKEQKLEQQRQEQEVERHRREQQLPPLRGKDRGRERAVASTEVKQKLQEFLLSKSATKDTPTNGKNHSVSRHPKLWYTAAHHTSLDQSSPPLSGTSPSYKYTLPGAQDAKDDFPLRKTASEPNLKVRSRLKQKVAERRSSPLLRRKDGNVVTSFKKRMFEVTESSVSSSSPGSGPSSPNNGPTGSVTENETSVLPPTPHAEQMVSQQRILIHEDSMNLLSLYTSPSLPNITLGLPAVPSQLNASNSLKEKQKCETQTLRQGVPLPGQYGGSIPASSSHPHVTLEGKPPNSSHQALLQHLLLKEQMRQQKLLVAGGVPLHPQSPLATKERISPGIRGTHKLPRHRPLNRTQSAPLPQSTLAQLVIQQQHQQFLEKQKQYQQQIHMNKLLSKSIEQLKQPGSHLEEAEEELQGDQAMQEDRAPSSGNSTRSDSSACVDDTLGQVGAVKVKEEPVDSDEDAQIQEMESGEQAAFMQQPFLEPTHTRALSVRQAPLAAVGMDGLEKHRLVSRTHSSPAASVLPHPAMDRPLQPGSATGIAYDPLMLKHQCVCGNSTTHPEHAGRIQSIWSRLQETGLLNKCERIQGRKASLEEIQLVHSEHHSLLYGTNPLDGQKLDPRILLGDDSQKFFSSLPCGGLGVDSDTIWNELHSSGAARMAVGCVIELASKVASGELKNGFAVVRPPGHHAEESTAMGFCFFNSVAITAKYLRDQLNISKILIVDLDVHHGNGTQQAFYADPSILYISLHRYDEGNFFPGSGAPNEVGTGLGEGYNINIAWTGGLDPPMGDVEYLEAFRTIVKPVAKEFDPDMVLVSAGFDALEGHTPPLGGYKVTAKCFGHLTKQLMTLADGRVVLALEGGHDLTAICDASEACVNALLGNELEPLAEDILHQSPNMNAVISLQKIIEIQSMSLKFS

[11] = biological target: HDAC8 (Homo sapiens, UniProt Q9BY41); assay: as above; conditions: read-out: IC50 HDAC8; experiment performed once
HDAC8, sequence (Q9BY41 whole entry): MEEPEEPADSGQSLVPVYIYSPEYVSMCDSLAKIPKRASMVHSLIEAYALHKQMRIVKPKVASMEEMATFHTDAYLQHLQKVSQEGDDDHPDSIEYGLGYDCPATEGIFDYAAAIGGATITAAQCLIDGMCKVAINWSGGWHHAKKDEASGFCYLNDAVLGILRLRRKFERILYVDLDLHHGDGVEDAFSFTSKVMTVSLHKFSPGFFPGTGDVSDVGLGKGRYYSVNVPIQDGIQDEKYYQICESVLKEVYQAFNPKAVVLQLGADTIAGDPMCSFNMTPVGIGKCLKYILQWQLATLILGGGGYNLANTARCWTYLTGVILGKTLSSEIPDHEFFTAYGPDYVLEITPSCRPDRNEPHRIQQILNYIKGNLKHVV

HDAC2, sequence (Q92769 whole entry): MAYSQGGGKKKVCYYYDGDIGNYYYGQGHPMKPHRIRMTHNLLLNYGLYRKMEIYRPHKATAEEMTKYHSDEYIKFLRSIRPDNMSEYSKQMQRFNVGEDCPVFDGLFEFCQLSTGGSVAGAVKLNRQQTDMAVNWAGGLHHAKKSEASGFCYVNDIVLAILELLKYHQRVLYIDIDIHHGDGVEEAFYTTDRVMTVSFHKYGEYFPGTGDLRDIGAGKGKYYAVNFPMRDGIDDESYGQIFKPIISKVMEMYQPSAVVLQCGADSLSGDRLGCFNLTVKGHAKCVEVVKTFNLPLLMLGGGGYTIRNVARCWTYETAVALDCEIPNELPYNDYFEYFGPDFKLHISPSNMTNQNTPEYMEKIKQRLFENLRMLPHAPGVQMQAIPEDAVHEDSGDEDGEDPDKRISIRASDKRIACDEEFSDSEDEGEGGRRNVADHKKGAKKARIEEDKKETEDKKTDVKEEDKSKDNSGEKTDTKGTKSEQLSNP

Structure (SMILES): Cc1cc(C)cc(C(=O)NOCCCCCC(=O)NO)c1 [19i]
- IC50 [1]: 402 nM
- global acetylation of histones H3 and H4 [2]: enhanced
- acetylation of α-tubulin ([2]; SAHA 2.5 μM): strongly induced
- in vitro IC50 HDAC6 [3]: sub-micromolar
- CC50 [4]: 630 nM
- CC50 [5]: 790 nM
- CC50 [6]: 740 nM
- p21CIP1 mRNA expression [7]: increased
- thymidylate synthase (TS) mRNA expression [7]: decreased
- PARP cleavage [8]: augmented
- CC50 [9]: < 1000 nM
- IC50 [10]: 198000 nM
- IC50 [11]: 2840 nM
